Each structure is given as a SMILES string.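 A five-concentration, 48-hour dose response in 96-well plates underlies each endpoint, interpolated linearly between surrounding concentrations. Definition used: TGI = concentration required for complete inhibition of growth.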

Among the test systems are OVCAR-8 ovarian; SW-620 colon; NCI/ADR-RES ovarian; K-562 leukemia; MALME-3M melanoma; OVCAR-3 ovarian; MOLT-4 leukemia; HOP-92 NSCLC; SK-MEL-2 melanoma; SK-MEL-28 melanoma; T-47D breast; 786-0 renal; HOP-62 NSCLC; BT-549 breast; OVCAR-5 ovarian; HL-60(TB) leukemia; SF-539 CNS; NCI-H226 lung; LOX IMVI melanoma; IGROV1 ovarian.
Common to all, as to test: NCI tumour cell line growth inhibition, 48 h

Regarding `COC(=O)c1c(O)ccc2c1c1c(n2Cc2ccccc2OC)C(=O)c2ccccc2C1=O`, the TGI in the test with OVCAR-8 ovarian was 27.4 µM; with SW-620 colon, 29.8 µM; with NCI/ADR-RES ovarian it was 39.2 µM; in the test with K-562 leukemia it was 17.3 µM; in the test on MALME-3M melanoma, 40.5 µM; with OVCAR-3 ovarian it was 23 µM. Also, the TGI with MOLT-4 leukemia stood at 1.42 µM; with HOP-92 NSCLC, 22.4 µM; with SK-MEL-2 melanoma it was 32.5 µM; in the test with SK-MEL-28 melanoma, 36.1 µM; with T-47D breast it was 9.58 µM; in the test with 786-0 renal, 24 µM. Further, the TGI in the test on HOP-62 NSCLC was found to be 27.8 µM; with BT-549 breast, 32.1 µM; with OVCAR-5 ovarian, 40.1 µM; with HL-60(TB) leukemia it was 18.3 µM; with SF-539 CNS, 47.1 µM; in the test with NCI-H226 lung it was 39.3 µM. Also, the TGI in the test with LOX IMVI melanoma came to 26.3 µM; in the test on IGROV1 ovarian, 28.3 µM.

`COc1cc2cc3c4c(cc(OC)c(OC)c4c2cc1OC)CCN3C`: the TGI in the test on OVCAR-8 ovarian was more than 50 µM; in the test with SW-620 colon, more than 50 µM; in the test on NCI/ADR-RES ovarian, more than 48.2 µM; with K-562 leukemia, more than 50 µM; with MALME-3M melanoma it was 24.9 µM; in the test on OVCAR-3 ovarian, 31.9 µM. In addition, the TGI with MOLT-4 leukemia is more than 31.4 µM; with HOP-92 NSCLC it was more than 50 µM; in the test on SK-MEL-2 melanoma it was 30 µM; in the test with SK-MEL-28 melanoma, more than 50 µM; with T-47D breast, 4.1 µM; in the test with 786-0 renal it was more than 50 µM. Besides, the TGI is more than 50 µM with HOP-62 NSCLC; more than 23.6 µM in the test on BT-549 breast; 49 µM in the test with OVCAR-5 ovarian; 18.7 µM with HL-60(TB) leukemia; 40.5 µM with SF-539 CNS; 26.7 µM in the test with NCI-H226 lung. Further, the figures for the TGI in the test with LOX IMVI melanoma and in the test on IGROV1 ovarian were 16.7 µM and more than 43.7 µM, respectively.

For `Nc1nc(Cl)c2ncn(Cc3cccc(CCl)c3)c2n1`, the TGI with OVCAR-8 ovarian is 11.3 µM; with SW-620 colon, 11.9 µM; in the test on NCI/ADR-RES ovarian, 11.5 µM; in the test on K-562 leukemia it was more than 51 µM; in the test on MALME-3M melanoma it was 18.1 µM; in the test on OVCAR-3 ovarian it was 3.74 µM. Further, the TGI in the test with MOLT-4 leukemia is more than 30.8 µM; with HOP-92 NSCLC it was 24.5 µM; with SK-MEL-2 melanoma, 58.5 µM; in the test with SK-MEL-28 melanoma it was 23.9 µM; with T-47D breast, 42.1 µM; in the test with 786-0 renal it was 22.6 µM. Further, the TGI in the test on HOP-62 NSCLC is 9.48 µM; in the test with BT-549 breast, 17.4 µM; in the test on OVCAR-5 ovarian, 22.8 µM; in the test with HL-60(TB) leukemia, more than 36.1 µM; in the test on SF-539 CNS, 20 µM; in the test with NCI-H226 lung, 26.9 µM. Also, the TGI in the test on LOX IMVI melanoma stood at 13.4 µM; with IGROV1 ovarian, 12.3 µM.

For `C=CCNC1=C2C[C@@H](C)C[C@H](OC)[C@H](O)[C@@H](C)/C=C(\C)[C@H](OC(N)=O)[C@@H](OC)/C=C\C=C(/C)C(=O)NC(=CC1=O)C2=O`, the TGI was determined as 46 µM in the test with OVCAR-8 ovarian; 33.9 µM with SW-620 colon; 57.3 µM in the test with NCI/ADR-RES ovarian; 29.7 µM in the test on K-562 leukemia; 3.39 µM in the test on MALME-3M melanoma; 9.64 µM with OVCAR-3 ovarian. Also, the TGI in the test on MOLT-4 leukemia amounted to 13 µM; in the test on HOP-92 NSCLC it was 15.9 µM; with SK-MEL-2 melanoma, 19.1 µM; with SK-MEL-28 melanoma it was 32.5 µM; in the test with T-47D breast, 29.5 µM; in the test on 786-0 renal it was 58.3 µM. In addition, the TGI turned out to be 23.1 µM in the test with HOP-62 NSCLC; 31.1 µM with BT-549 breast; 22.6 µM with OVCAR-5 ovarian; 1.06 µM with HL-60(TB) leukemia; 9.5 µM in the test on SF-539 CNS; 28.9 µM in the test with NCI-H226 lung. Further, the TGI in the test with LOX IMVI melanoma was determined as 2 µM; in the test with IGROV1 ovarian it was 15.1 µM.

For the molecule `O=C1OCC(c2ccc(Cl)cc2)=C1Cl`, the TGI with OVCAR-8 ovarian came to 73.6 µM; with SW-620 colon it was 61.2 µM; in the test with NCI/ADR-RES ovarian, 55.8 µM; in the test with K-562 leukemia, 92.6 µM; in the test with MALME-3M melanoma, 32.7 µM; in the test with OVCAR-3 ovarian it was 44.4 µM. Also, the TGI in the test with MOLT-4 leukemia was more than 100 µM; in the test with HOP-92 NSCLC it was 58.9 µM; in the test on SK-MEL-2 melanoma, 64.1 µM; in the test with SK-MEL-28 melanoma, more than 100 µM; in the test with T-47D breast it was more than 100 µM; in the test with 786-0 renal it was 40.6 µM. Further, the TGI in the test with HOP-62 NSCLC is 56 µM; in the test with BT-549 breast, 53.9 µM; in the test with OVCAR-5 ovarian, 44.4 µM; in the test with HL-60(TB) leukemia, 48.5 µM; with SF-539 CNS, more than 100 µM; with NCI-H226 lung, more than 100 µM. Also, the TGI worked out at 60.3 µM with LOX IMVI melanoma and 25.2 µM in the test with IGROV1 ovarian.

Consider `CCOC(=O)CCC(NC(=O)c1ccc(Oc2nc3c(N)cc(C(F)(F)F)cc3nc2-c2ccccc2)cc1)C(=O)OCC` (stereo not given), for which the TGI in the test with OVCAR-8 ovarian is more than 80.7 µM; with SW-620 colon, more than 100 µM; with NCI/ADR-RES ovarian, more than 100 µM; with K-562 leukemia it was more than 100 µM; in the test with MALME-3M melanoma it was 91.9 µM; in the test with OVCAR-3 ovarian, more than 30.9 µM. Further, the TGI with MOLT-4 leukemia was more than 100 µM; with HOP-92 NSCLC it was more than 100 µM; with SK-MEL-2 melanoma, more than 30.7 µM; in the test with SK-MEL-28 melanoma, more than 100 µM; in the test on T-47D breast it was more than 100 µM; with 786-0 renal, more than 22 µM. The TGI in the test with HOP-62 NSCLC is 28.5 µM; with BT-549 breast it was more than 95 µM; in the test with OVCAR-5 ovarian, more than 100 µM; in the test on HL-60(TB) leukemia it was more than 100 µM; in the test with SF-539 CNS it was 8.48 µM; with NCI-H226 lung, more than 55.8 µM. Also, the TGI in the test on LOX IMVI melanoma and in the test with IGROV1 ovarian was more than 100 µM each time.

For `CC/C(Cl)=N\OC(=O)Nc1ccc(OC)c(C)c1`, the TGI in the test with OVCAR-8 ovarian was 39.2 µM; in the test with SW-620 colon it was more than 68.8 µM; in the test with NCI/ADR-RES ovarian it was 37.5 µM; in the test on K-562 leukemia, more than 91.2 µM; with MALME-3M melanoma, 26.6 µM; with OVCAR-3 ovarian it was 50 µM. In addition, the TGI in the test with MOLT-4 leukemia came out at 47 µM; in the test with HOP-92 NSCLC, 5.69 µM; with SK-MEL-2 melanoma it was 49.9 µM; in the test with SK-MEL-28 melanoma, 62 µM; in the test with T-47D breast, 39.1 µM; in the test on 786-0 renal it was 36.8 µM. The TGI is more than 82.5 µM in the test on HOP-62 NSCLC; 34.9 µM in the test with BT-549 breast; 71.6 µM in the test with OVCAR-5 ovarian; more than 44.5 µM with HL-60(TB) leukemia; 42 µM in the test with SF-539 CNS; 70.4 µM in the test on NCI-H226 lung. The TGI in the test on LOX IMVI melanoma was found to be 31.1 µM; in the test on IGROV1 ovarian, 39.1 µM.

The values above are taken from PubChem BioAssay (NCI).
